Reference: US5916905A, “2,3-substituted pyridines for the treatment of inflammation” (G. D. Searle & Co., priority 1997, dated 1999)

Experiments:
carrageenan foot edema = experiment: Rat Carrageenan Foot Pad Edema Test; type: in vivo, rat (male Sprague-Dawley); conditions: @ 10 mg/kg body weight, oral, 1 h before carrageenan; read 3 h after injection
Protocol: Rat Carrageenan Foot Pad Edema Test
Male Sprague-Dawley rats were selected in each group so that the average body weight was as close as possible. Rats were fasted with free access to water for over sixteen hours prior to the test. […] One hour later a subplantar injection of 0.1 mL of 1% solution of carrageenan/sterile 0.9% saline was administered and the volume of the injected foot was measured with a displacement plethysmometer connected to a pressure transducer with a digital indicator. Three hours after the injection of the carrageenan, the volume of the foot was again measured.

COX-2 [1] = molecular target: T1, COX-2 (Homo sapiens, UniProt P35354); experiment: COX-2 activity in vitro, recombinant human enzyme (PGE2 ELISA); type: biochemical; conditions: human (h); 10 μM arachidonic acid, 10-20 min pre-incubation; read-out: COX-2 ID50
T1 construct: A 2.0 kb fragment containing the coding region; made in house; host or cells: SF9 insect cells (baculovirus, pVL1393)
T1 sequence (P35354 18-604): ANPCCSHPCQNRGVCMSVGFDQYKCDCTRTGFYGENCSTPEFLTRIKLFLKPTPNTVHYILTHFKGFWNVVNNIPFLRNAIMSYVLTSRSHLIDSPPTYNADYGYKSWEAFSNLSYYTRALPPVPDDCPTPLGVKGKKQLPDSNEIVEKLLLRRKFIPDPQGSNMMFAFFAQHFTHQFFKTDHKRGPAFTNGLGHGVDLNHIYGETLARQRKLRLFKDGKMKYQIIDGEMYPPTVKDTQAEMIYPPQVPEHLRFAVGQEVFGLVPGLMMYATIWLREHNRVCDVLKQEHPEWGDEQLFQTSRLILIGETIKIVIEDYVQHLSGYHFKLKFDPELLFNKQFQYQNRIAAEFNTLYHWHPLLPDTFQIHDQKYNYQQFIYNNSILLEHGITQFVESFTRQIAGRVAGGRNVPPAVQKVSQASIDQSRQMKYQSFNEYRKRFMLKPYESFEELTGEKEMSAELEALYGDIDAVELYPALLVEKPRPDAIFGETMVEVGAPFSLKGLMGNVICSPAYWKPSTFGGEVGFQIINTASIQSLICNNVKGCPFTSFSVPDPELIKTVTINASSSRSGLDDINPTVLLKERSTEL
Protocol: (§1) The COX-2 inhibition activity of the compounds of this invention illustrated in the Examples was determined by the following methods.
(§2) Recombinant COX-1 and COX-2 were prepared as described by Gierse et al, [J. Biochem., 305, 479-84 (1995)]. A 2.0 kb fragment containing the coding region of either human or murine COX-1 or human or murine COX-2 was cloned into a BamH1 site of the baculovirus transfer vector pVL1393 (Invitrogen) to generate the baculovirus transfer vectors for COX-1 and COX-2 in a manner similar to the method of D. R. O'Reilly et al (Baculovirus Expression Vectors: A Laboratory Manual (1992)). Recombinant baculoviruses were isolated by transfecting 4 μg of baculovirus transfer vector DNA into SF9 insect cells (2×10^8) along with 200 ng of linearized baculovirus plasmid DNA by the calcium phosphate method. See M. D. Summers and G. E. Smith, A Manual of Methods for Baculovirus Vectors and Insect Cell Culture Procedures, Texas Agric. Exp. Station Bull. 1555 (1987). Recombinant viruses were purified by three rounds of plaque purification and high titer (10^7 -10^8 pfu/ml) stocks of virus were prepared. For large scale production, SF9 insect cells were infected in 10 liter fermentors (0.5×10^6 /ml) with the recombinant baculovirus stock such that the multiplicity of infection was 0.1. After 72 hours the cells were centrifuged and the cell pellet homogenized in Tris/Sucrose (50 mM: 25%, pH 8.0) containing 1% 3-[(3-cholamidopropyl)dimethylammonio]-1-propanesulfonate (CHAPS). The homogenate was centrifuged at 10,000×G for 30 minutes, and the resultant supernatant was stored at -80° C. before being assayed for COX activity.
(§3) b. Assay for COX-1 and COX-2 activity COX activity was assayed as PGE2 formed/μg protein/time using an ELISA to detect the prostaglandin released. CHAPS-solubilized insect cell membranes containing the appropriate COX enzyme were incubated in a potassium phosphate buffer (50 mM, pH 8.0) containing epinephrine, phenol, and heme with the addition of arachidonic acid (10 μM). Compounds were pre-incubated with the enzyme for 10-20 minutes prior to the addition of arachidonic acid. Any reaction between the arachidonic acid and the enzyme was stopped after ten minutes at 37° C./room temperature by transferring 40 μl of reaction mix into 160 μl ELISA buffer and 25 μM indomethacin. The PGE2 formed was measured by standard ELISA technology (Cayman Chemical).

COX-1 [2] = molecular target: T2, COX-1 (Homo sapiens, UniProt P23219); experiment: COX-1 activity in vitro, recombinant human enzyme (PGE2 ELISA); type: biochemical; conditions: human (h); 10 μM arachidonic acid, 10-20 min pre-incubation; read-out: COX-1 ID50
T2 construct: A 2.0 kb fragment containing the coding region; made in house; host or cells: SF9 insect cells (baculovirus, pVL1393)
Protocol: as §1, §2, §3

COX-1 [3] = molecular target: T3, COX-1 (Mus musculus, UniProt P22437); experiment: COX-1 activity in vitro, recombinant murine enzyme (PGE2 ELISA); type: biochemical; conditions: murine (m); 10 μM arachidonic acid, 10-20 min pre-incubation; read-out: COX-1 ID50
T3 construct: A 2.0 kb fragment containing the coding region; made in house; host or cells: SF9 insect cells (baculovirus, pVL1393)
T3 sequence (P22437 27-602): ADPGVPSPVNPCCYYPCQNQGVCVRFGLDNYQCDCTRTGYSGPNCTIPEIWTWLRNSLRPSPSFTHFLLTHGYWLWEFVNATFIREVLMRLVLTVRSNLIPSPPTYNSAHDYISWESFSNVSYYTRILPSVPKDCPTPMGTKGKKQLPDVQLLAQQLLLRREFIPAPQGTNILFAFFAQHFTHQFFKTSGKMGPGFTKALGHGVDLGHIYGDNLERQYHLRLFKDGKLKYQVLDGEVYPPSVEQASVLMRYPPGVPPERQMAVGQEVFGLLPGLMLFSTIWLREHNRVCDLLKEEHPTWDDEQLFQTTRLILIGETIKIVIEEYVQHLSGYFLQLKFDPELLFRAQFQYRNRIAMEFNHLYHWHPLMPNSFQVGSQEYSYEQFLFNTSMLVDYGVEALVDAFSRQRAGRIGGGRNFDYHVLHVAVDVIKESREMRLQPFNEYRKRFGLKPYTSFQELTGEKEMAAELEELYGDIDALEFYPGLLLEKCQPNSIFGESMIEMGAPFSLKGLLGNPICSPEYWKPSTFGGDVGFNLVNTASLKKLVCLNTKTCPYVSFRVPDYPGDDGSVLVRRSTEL
Protocol: as §1, §2, §3

COX-2 [4] = molecular target: T4, COX-2 (Mus musculus, UniProt Q05769); experiment: COX-2 activity in vitro, recombinant murine enzyme (PGE2 ELISA); type: biochemical; conditions: murine (m); 10 μM arachidonic acid, 10-20 min pre-incubation; read-out: COX-2 ID50
T4 construct: A 2.0 kb fragment containing the coding region; made in house; host or cells: SF9 insect cells (baculovirus, pVL1393)
T4 sequence (Q05769 18-604): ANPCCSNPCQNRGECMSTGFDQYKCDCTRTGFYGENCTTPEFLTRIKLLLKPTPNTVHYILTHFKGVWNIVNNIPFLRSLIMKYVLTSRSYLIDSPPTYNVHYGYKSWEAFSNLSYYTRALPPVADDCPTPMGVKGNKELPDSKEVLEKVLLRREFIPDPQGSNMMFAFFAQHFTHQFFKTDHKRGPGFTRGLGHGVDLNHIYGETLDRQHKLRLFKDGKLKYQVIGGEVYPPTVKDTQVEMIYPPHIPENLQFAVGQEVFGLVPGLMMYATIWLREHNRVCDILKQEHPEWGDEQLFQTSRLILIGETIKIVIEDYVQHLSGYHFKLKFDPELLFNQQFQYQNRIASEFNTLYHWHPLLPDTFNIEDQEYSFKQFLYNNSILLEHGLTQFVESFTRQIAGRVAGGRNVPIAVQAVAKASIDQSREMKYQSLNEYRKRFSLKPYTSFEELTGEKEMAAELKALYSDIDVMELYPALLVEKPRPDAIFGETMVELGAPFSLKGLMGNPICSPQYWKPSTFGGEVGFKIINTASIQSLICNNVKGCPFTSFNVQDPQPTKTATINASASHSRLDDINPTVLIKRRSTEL
Protocol: as §1, §2, §3

T2 sequence (P23219 24-599): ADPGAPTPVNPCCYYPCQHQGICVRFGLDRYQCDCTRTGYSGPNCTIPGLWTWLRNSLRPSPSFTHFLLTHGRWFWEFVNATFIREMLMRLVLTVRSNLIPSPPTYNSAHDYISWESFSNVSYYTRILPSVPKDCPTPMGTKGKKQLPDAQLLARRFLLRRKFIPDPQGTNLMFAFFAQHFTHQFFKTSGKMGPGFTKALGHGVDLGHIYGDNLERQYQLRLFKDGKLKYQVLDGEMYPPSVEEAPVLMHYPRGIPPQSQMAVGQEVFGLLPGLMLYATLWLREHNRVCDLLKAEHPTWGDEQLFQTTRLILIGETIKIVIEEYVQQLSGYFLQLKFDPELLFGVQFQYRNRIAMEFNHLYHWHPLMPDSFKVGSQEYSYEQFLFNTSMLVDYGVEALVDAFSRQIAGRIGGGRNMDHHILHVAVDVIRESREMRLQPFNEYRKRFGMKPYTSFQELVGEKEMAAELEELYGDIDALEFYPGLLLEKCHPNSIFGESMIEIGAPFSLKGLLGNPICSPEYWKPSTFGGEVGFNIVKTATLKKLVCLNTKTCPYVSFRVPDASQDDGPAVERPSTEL

IC50 (COX-1 [3]) [µM]	IC50 (COX-2 [4]) [µM]	SMILES	RAT PAW EDEMA % Inhibition (carrageenan foot edema) [%]	IC50 (COX-2 [1]) [µM]	IC50 (COX-1 [2]) [µM]
> 100	0.1	CS(=O)(=O)c1ccc(-c2cc(C#N)c(Cl)nc2-c2ccc(F)cc2)cc1 [Example 7, 2-Chloro-6-(4-fluorophenyl)-5-[4-(methylsulfonyl)phenyl]-pyridine-3-carbonitrile]			
> 100	26.2	CS(=O)(=O)c1ccc(-c2cc(C(N)=O)c(Cl)nc2-c2ccc(F)cc2)cc1 [Example 20, 2-Chloro-6-(4-fluorophenyl)-5-[4-(methylsulfonyl)phenyl]pyridine-3-carboxamide]			
> 100	0.3	COc1nc(-c2ccc(S(C)(=O)=O)cc2)c(-c2ccc(F)cc2)cc1C#N [Example 23]			

Further lines, the compound ahead of its results:

SMILES	IC50 (COX-1 [3]) [µM]	IC50 (COX-2 [4]) [µM]	RAT PAW EDEMA % Inhibition (carrageenan foot edema) [%]	IC50 (COX-2 [1]) [µM]	IC50 (COX-1 [2]) [µM]
COc1nc(-c2ccc(F)cc2)c(-c2ccc(S(C)(=O)=O)cc2)cc1C#N [Example 2, 6-(4-Fluorophenyl)-2-methoxy-5-[4-(methylsulfonyl)phenyl]-pyridine-3-carbonitrile]			16	0.2	> 100
CS(=O)(=O)c1ccc(-c2cc(C#N)c(Br)nc2-c2ccc(F)cc2)cc1 [Example 3, 2-Bromo-6-(4-fluorophenyl)-5-[4-(methylsulfonyl)phenyl]-pyridine-3-carbonitrile]	> 10	< 0.1	16		
CS(=O)(=O)c1ccc(-c2cc(C#N)c(-c3ccccc3)nc2-c2ccc(F)cc2)cc1 [Example 4, 6-(4-Fluorophenyl)-5-[4-(methylsulfonyl)phenyl]-2-phenyl-pyridine-3-carbonitrile]	> 10	< 0.1	18		
CS(=O)(=O)c1ccc(-c2cc(C(N)=O)cnc2-c2ccc(F)cc2)cc1 [Example 21, 6-(4-Fluorophenyl)-5-[4-(methylsulfonyl)phenyl]pyridine-3-carboxamide]	> 100	105			
CS(=O)(=O)c1ccc(-c2cc(C#N)cnc2-c2ccc(F)cc2)cc1 [Example 22, 6-(4-Fluorophenyl)-5-[4-(methylsulfonyl)phenyl]pyridine-3-carbonitrile]	> 10	0.3			
